From ChEMBL document CHEMBL4229477, “Reevaluating the Substrate Specificity of the L-Type Amino Acid Transporter (LAT1)” (J Med Chem, 2018)

Target: Large neutral amino acids transporter small subunit 1 (Homo sapiens, UniProt Q01650)
Assay: Cis-inhibition of human LAT1 expressed in TREx HEK293 cells at 200 uM assessed as inhibition of [3H]-gabapentin uptake preincubated for 3 mins at 37 degC followed by washing with choline buffer and measured after 3 hrs by scintillation counting analysis relative to BCH
Type: cell-based

Sequence of Large neutral amino acids transporter small subunit 1 (Q01650 whole entry): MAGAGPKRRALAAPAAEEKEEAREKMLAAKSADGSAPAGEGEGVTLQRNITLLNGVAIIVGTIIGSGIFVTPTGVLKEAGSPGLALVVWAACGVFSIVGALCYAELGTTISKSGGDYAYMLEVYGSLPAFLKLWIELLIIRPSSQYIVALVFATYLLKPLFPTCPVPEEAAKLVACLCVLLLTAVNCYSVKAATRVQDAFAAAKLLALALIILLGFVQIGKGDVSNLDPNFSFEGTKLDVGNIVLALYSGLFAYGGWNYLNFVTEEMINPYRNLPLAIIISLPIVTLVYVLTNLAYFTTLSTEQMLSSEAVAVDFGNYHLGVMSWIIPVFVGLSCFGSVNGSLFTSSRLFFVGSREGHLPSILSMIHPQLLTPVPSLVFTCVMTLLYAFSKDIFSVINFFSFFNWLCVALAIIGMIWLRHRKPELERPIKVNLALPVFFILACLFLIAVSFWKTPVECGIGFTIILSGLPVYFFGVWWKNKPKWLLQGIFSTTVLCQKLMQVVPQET

| Compound | IC50 [µM] |
| --- | --- |
| N[C@H](Cc1ccc(O)cc1)C(=O)O | 380 |
| CC(C)[C@@H](N)C(=O)O | > 50000 |
| N[C@@H](Cc1cccc(O)c1)C(=O)O | 130 |
| Cn1cnc(C[C@H](N)C(=O)O)c1 | 190 |
| CSCC[C@@H](N)C(=O)O | 120 |
| N[C@@H](CC1CCCCC1)C(=O)O | 200 |
| N[C@@H](Cc1cccc(C(=O)O)c1)C(=O)O | 130 |
| CC(=O)c1cccc(C[C@H](N)C(=O)O)c1 | 92 |
| CC[C@H](C)[C@@H](N)C(=O)O | > 3000 |
| N[C@@H](Cc1cn(Cc2ccccc2)cn1)C(=O)O | 170 |
| CNC(=O)c1cccc(C[C@H](N)C(=O)O)c1 | 96 |
| COC(=O)c1cc(C)cc(C[C@H](N)C(=O)O)c1 | 95 |
| COC(=O)c1cccc(C[C@H](N)C(=O)O)c1 | 36 |
| N[C@@H](Cc1cccnc1)C(=O)O | 69 |
| COC(=O)Cc1cccc(C[C@H](N)C(=O)O)c1 | 76 |
| N[C@@H](Cc1ccccn1)C(=O)O | 160 |
| NCc1cccc(C[C@H](N)C(=O)O)c1 | 470 |
| N[C@@H](Cc1cccc(C(=O)OCCO)c1)C(=O)O | 29 |
| COC(=O)c1cccc(C[C@@H](N)C(=O)O)c1 | 150 |
| COC(=O)c1ccc(C[C@H](N)C(=O)O)cc1 | 260 |
| Nc1cccc(C[C@H](N)C(=O)O)c1 | 101 |

| Compound | IC50 [µM] |
| --- | --- |
| CSCC[C@](N)(Cc1ccccc1)C(=O)O | 240 |
| CC(=O)Nc1cccc(C[C@H](N)C(=O)O)c1 | 110 |
| CC(C)(C)OC(=O)c1cccc(C[C@H](N)C(=O)O)c1 | 17 |
| Cc1cc(C[C@H](N)C(=O)O)cc(C(=O)O)c1 | 680 |
| N[C@@H](Cc1ccncc1)C(=O)O | 100 |
| C[C@](N)(Cc1ccccc1)C(=O)O | 130 |
| C[C@@](N)(Cc1ccccc1)C(=O)O | 810 |
| N[C@@H](Cc1cccc(CO)c1)C(=O)O | 83 |
| N[C@H](CC1CCCCC1)C(=O)O | 260 |
| N[C@H](Cc1c[nH]cn1)C(=O)O [D-HISTIDINE] | 460 |
| CC(C)C[C@@H](N)C(=O)O [D-LEUCINE] | 220 |
| N[C@H](Cc1ccccc1)C(=O)O [D-PHENYLALANINE] | 46 |
| N[C@H](Cc1c[nH]c2ccccc12)C(=O)O [D-TRYPTOPHAN] | 380 |
| N[C@@H](Cc1c[nH]cn1)C(=O)O [HISTIDINE] | 20 |
| CC[C@H](C)[C@H](N)C(=O)O [ISOLEUCINE] | 140 |
| CC(C)C[C@H](N)C(=O)O [LEUCINE] | 85 |
| CSCC[C@H](N)C(=O)O [METHIONINE] | 170 |
| N[C@@H](Cc1ccccc1)C(=O)O [PHENYLALANINE] | 69 |
| N[C@@H](Cc1c[nH]c2ccccc12)C(=O)O [TRYPTOPHAN] | 160 |
| N[C@@H](Cc1ccc(O)cc1)C(=O)O [TYROSINE] | 68 |
| CC(C)[C@H](N)C(=O)O [VALINE] | 68 |
